From patent US20240109865A1, “INDAZOLE COMPOUNDS AS KINASE INHIBITORS” (TYRA BIOSCIENCES, INC., priority 2020, published 2024)

Key:
Experiment in all cases: Kinase assay, binding constants (Kd), kinase-tagged T7 phage, qPCR
FGFR2 = FGFR2 (Homo sapiens (Human), UniProt P21802)
Summary of the method: (§1)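 Competition binding: kinase-tagged T7 phage lysates mixed with immobilized biotinylated ligand on streptavidin beads plus compound (11-point 3-fold dilution series, 0.9% DMSO final). Bound kinase eluted with free ligand and quantified by qPCR. Kd from Hill equation fit, slope fixed at −1.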

FGFR3 = FGFR3 (Homo sapiens (Human), UniProt P22607)
Summary of the method: as §1

FGFR1 = FGFR1 (Homo sapiens (Human), UniProt P11362)
Summary of the method: as §1

FGFR4 = FGFR4 (Homo sapiens (Human), UniProt P22455)
Summary of the method: as §1

FGFR3 (V555M) = FGFR3 (V555M) (Homo sapiens (Human), UniProt P22607, V555M); conditions: V555M mutant
Summary of the method: as §1

Sequence of FGFR3 (P22607 23-806): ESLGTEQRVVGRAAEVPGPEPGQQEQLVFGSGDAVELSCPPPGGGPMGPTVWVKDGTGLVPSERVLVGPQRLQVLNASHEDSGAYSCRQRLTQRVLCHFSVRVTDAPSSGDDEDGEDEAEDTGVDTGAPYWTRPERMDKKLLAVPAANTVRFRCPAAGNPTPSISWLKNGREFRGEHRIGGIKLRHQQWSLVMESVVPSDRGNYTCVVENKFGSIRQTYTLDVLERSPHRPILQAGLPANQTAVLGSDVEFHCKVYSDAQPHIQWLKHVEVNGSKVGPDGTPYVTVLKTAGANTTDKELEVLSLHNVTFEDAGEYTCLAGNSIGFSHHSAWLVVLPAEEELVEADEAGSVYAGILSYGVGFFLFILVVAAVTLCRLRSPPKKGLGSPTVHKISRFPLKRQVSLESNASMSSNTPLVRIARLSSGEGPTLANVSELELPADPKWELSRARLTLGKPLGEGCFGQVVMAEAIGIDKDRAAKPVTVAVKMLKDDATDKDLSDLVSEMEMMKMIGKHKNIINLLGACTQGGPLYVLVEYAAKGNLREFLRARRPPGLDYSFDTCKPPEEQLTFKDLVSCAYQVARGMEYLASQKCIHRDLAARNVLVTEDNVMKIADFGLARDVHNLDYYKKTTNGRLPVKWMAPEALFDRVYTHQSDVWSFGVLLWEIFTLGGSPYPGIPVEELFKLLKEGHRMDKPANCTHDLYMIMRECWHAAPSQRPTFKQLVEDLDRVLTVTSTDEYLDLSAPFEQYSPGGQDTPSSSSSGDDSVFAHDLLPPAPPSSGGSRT
Sequence of FGFR2 (P21802 22-821): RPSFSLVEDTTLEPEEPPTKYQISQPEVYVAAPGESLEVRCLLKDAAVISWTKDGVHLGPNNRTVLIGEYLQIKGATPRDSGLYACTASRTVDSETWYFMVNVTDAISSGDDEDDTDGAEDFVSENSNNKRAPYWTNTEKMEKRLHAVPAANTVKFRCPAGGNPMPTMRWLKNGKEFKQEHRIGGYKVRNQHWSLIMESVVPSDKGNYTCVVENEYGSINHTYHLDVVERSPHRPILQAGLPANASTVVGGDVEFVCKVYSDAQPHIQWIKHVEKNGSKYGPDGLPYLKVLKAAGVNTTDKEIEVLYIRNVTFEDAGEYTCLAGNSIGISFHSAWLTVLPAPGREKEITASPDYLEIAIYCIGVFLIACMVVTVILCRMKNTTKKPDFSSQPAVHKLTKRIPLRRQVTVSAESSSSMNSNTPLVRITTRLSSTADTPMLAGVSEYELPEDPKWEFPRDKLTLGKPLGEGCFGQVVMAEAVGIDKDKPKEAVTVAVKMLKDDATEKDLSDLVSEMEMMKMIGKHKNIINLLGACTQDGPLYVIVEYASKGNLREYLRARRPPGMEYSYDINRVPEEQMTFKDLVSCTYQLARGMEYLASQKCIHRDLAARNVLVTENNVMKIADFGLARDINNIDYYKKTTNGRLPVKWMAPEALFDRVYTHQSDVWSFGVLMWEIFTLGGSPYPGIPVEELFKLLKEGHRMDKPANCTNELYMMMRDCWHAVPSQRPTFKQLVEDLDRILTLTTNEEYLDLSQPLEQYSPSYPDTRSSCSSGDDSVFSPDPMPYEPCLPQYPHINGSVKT
Sequence of FGFR1 (P11362 22-822): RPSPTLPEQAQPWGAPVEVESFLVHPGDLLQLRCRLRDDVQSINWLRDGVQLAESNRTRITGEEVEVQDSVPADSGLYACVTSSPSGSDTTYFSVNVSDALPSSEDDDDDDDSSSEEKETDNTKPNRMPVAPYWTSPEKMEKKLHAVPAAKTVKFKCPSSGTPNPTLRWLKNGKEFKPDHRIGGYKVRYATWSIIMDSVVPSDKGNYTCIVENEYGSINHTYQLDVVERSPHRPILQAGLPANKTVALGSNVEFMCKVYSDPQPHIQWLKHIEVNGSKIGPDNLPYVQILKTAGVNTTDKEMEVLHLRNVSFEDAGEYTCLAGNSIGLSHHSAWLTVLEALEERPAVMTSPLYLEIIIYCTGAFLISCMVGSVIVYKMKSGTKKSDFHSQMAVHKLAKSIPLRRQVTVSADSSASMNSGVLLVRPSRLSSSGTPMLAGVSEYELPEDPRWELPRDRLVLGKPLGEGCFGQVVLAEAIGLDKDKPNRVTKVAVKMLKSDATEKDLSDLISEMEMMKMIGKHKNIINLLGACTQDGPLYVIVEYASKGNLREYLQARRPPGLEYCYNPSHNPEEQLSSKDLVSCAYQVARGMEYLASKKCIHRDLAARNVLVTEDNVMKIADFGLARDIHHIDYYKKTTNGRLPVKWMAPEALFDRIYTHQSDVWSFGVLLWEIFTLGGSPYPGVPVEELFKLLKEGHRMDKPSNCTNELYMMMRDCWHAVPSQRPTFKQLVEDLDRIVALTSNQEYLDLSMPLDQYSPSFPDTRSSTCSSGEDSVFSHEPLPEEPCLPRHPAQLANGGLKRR
Sequence of FGFR3 (V555M) (P22607 23-806 V555M): as the sequence (P22607 23-806) above, with V533M counted along it
Sequence of FGFR4 (P22455 22-802): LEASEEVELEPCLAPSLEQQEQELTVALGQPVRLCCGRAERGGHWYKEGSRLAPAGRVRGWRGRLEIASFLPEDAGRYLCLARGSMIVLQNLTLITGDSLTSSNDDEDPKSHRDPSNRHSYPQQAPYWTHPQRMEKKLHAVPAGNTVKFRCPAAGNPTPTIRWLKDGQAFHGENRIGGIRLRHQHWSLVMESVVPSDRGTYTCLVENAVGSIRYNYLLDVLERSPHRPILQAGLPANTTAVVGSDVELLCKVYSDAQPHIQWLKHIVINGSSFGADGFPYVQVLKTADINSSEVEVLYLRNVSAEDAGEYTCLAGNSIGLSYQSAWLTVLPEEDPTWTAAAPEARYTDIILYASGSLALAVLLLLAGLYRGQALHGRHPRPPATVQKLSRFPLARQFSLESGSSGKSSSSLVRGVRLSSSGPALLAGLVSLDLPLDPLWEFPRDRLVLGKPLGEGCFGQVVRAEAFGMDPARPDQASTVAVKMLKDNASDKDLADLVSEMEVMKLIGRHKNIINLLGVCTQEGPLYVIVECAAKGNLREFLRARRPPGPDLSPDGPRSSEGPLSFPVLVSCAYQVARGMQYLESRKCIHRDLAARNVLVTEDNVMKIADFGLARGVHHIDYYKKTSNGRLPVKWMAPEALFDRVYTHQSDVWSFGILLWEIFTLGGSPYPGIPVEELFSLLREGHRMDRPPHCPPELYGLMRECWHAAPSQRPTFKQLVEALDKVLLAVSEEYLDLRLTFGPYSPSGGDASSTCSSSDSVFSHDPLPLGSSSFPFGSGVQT

What does the source list for `C[C@@H](Oc1ccc2[nH]nc(-c3cnc(N4CCC[C@H]4CO)c(C#N)c3)c2c1)c1c(Cl)cncc1Cl` [Example 334, 5-(5-((R)-1-(3,5-dichloropyridin-4-yl)ethoxy)-1H-indazol-3-yl)-2-((S)-2-(hydroxymethyl)pyrrolidin-1-yl)nicotinonitrile]?
Kd (FGFR2): 20 to 100 nM; Kd (FGFR3): 1 to 20 nM; Kd (FGFR1): 20 to 100 nM; Kd (FGFR4): 1 to 20 nM; Kd (FGFR3 (V555M)): 1 to 20 nM

Which Kd (FGFR2) does the source give for `COc1cc2[nH]nc(-c3cnc(N4CC5(CCS(=O)(=O)C5)C4)c(C#N)c3)c2cc1O[C@H](C)c1c(Cl)cncc1Cl` [Example 339, (R)-5-(5-(1-(3,5-dichloropyridin-4-yl)ethoxy)-6-methoxy-1H-indazol-3-yl)-2-(6,6-dioxido-6-thia-2-azaspiro[3.4]octan-2-yl)nicotinonitrile] here?
The Kd was 1 to 20 nM.

And the Kd (FGFR3)?
The Kd was 1 to 20 nM.

What about the Kd (FGFR1) of the same molecule?
The Kd was 1 to 20 nM.

What about the Kd (FGFR4) of the same molecule?
Its Kd is 1 to 20 nM.

What about the Kd (FGFR3 (V555M)) of the same molecule?
Its Kd is 1 to 20 nM.

For `C[C@@H](Oc1ccc2[nH]nc(-c3ccc(N4CC(C(F)F)C4)nc3)c2c1)c1c(Cl)cncc1Cl` [Example 252, (R)-5-(1-(3,5-dichloropyridin-4-yl)ethoxy)-3-(6-(3-(difluoromethyl)azetidin-1-yl)pyridin-3-yl)-1H-indazole], which Kd (FGFR2) is on record?
The Kd was 20 to 100 nM.

What about the Kd (FGFR3) of the same molecule?
Its Kd is 1 to 20 nM.

What about the Kd (FGFR1) of the same molecule?
Its Kd is 20 to 100 nM.

What about the Kd (FGFR4) of the same molecule?
Its Kd is 1 to 20 nM.

And the Kd (FGFR3 (V555M))?
Its Kd is 1 to 20 nM.

For `C[C@@H](Oc1ccc2[nH]nc(-c3ccc(N4CCC[C@H]4CO)nc3)c2c1)c1c(Cl)cncc1Cl` [Example 237, ((S)-1-(5-(5-((R)-1-(3,5-dichloropyridin-4-yl)ethoxy)-1H-indazol-3-yl)pyridin-2-yl)pyrrolidin-2-yl)methanol], which Kd (FGFR2) is on record?
The Kd was 1 to 20 nM.

And the Kd (FGFR3)?
The Kd was 1 to 20 nM.

And the Kd (FGFR1)?
The Kd was 1 to 20 nM.

And the Kd (FGFR4)?
Its Kd is 1 to 20 nM.

And the Kd (FGFR3 (V555M))?
Its Kd is 1 to 20 nM.

With `Cc1ncc(Cl)c([C@@H](C)Oc2ccc3[nH]nc(-c4cnc(N5CC6(CCCS(=O)(=O)C6)C5)c(C#N)c4)c3c2)c1Cl` [Example 349, 5-[5-[(1R)-1-(3,5-dichloro-2-methyl-4-pyridyl)ethoxy]-1H-indazol-3-yl]-2-(6,6-dioxo-6λ^6-thia-2-azaspiro[3.5]nonan-2-yl)pyridine-3-carbonitrile] as the molecule, how does the Kd (FGFR2) read?
The Kd was 100 to 300 nM.

And the Kd (FGFR3)?
The Kd was 20 to 100 nM.

What about the Kd (FGFR1) of the same molecule?
Its Kd is 100 to 300 nM.

What about the Kd (FGFR4) of the same molecule?
Its Kd is 1 to 20 nM.

And the Kd (FGFR3 (V555M))?
The Kd was 1 to 20 nM.

With `C[C@@H](Oc1ccc2[nH]nc(-c3cnc(N4CC[C@H](O)C4)c(C#N)c3)c2c1)c1c(Cl)cnc(F)c1Cl` [Example 288, 5-(5-((R)-1-(3,5-dichloro-2-fluoropyridin-4-yl)ethoxy)-1H-indazol-3-yl)-2-((S)-3-hydroxypyrrolidin-1-yl)nicotinonitrile] as the molecule, how does the Kd (FGFR2) read?
Its Kd is over 300 nM.

And the Kd (FGFR3)?
Its Kd is 20 to 100 nM.

And the Kd (FGFR1)?
Its Kd is over 300 nM.

What about the Kd (FGFR4) of the same molecule?
The Kd was 1 to 20 nM.

And the Kd (FGFR3 (V555M))?
Its Kd is 20 to 100 nM.

For `Cc1cc(-c2n[nH]c3ccc(O[C@H](C)c4c(Cl)cnc(C)c4Cl)cc23)cnc1N1CC(CO)(CO)C1` [Example 234, [1-[5-[5-[(1R)-1-(3,5-dichloro-2-methyl-4-pyridyl)ethoxy]-1H-indazol-3-yl]-3-methyl-2-pyridyl]-3-(hydroxymethyl)azetidin-3-yl]methanol], which Kd (FGFR2) is on record?
Its Kd is 100 to 300 nM.

And the Kd (FGFR3)?
Its Kd is 1 to 20 nM.

And the Kd (FGFR1)?
Its Kd is 100 to 300 nM.

What about the Kd (FGFR4) of the same molecule?
The Kd was 1 to 20 nM.

And the Kd (FGFR3 (V555M))?
Its Kd is 1 to 20 nM.

How did the Kd (FGFR2) turn out when `C[C@@H](Oc1ccc2[nH]nc(-c3cnn(C4CCN(C(=O)CN(C)C)CC4)c3)c2c1)c1c(Cl)cncc1Cl` [Example 81, 1-[4-[4-[5-[(1R)-1-(3,5-dichloro-4-pyridyl)ethoxy]-1H-indazol-3-yl]pyrazol-1-yl]-1-piperidyl]-2-(dimethylamino)ethanone] was run?
Its Kd is 1 to 20 nM.

And the Kd (FGFR3)?
Its Kd is 1 to 20 nM.

And the Kd (FGFR1)?
The Kd was 1 to 20 nM.

And the Kd (FGFR4)?
The Kd was 1 to 20 nM.

And the Kd (FGFR3 (V555M))?
The Kd was 1 to 20 nM.

With `C[C@@H](Oc1ccc2[nH]nc(-c3cnc(N4CC(C(F)F)C4)c(C#N)c3)c2c1)c1c(Cl)cncc1Cl` [Example 345, (R)-5-(5-(1-(3,5-dichloropyridin-4-yl)ethoxy)-1H-indazol-3-yl)-2-(3-(difluoromethyl)azetidin-1-yl)nicotinonitrile] as the molecule, how does the Kd (FGFR2) read?
The Kd was over 300 nM.

What about the Kd (FGFR3) of the same molecule?
The Kd was 20 to 100 nM.

What about the Kd (FGFR1) of the same molecule?
The Kd was over 300 nM.

What about the Kd (FGFR4) of the same molecule?
The Kd was 1 to 20 nM.

And the Kd (FGFR3 (V555M))?
Its Kd is 20 to 100 nM.
